# Test results from ChEMBL document CHEMBL1201862, “PubChem BioAssay data set” (2004).
# The source made the active and inactive calls.
# Experiments:
# [1] = system: Streptococcus sp. 'group A'; experiment: growth inhibition of control SK(-) GAS strain, dose response, counter-screen for streptokinase expression inhibitor project, luminescence, kanamycin, BacTiterGlo, confirmation (AID 1900); type: functional, organism-based
# [2] = cytotoxicity toward DRD oncogenic fibroblasts, dose response, cell-based, non-viral oncogenic, luminescence (AID 1934); type: functional; settings: Homo sapiens
# BJ [3] = experiment: cells; type: functional, cell-based; settings: Homo sapiens
# [4] = growth suppression of beta-catenin-knockout colon cells, dose response, cell-based, HCT116, human colon tumor (AID 1045); type: functional;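 also: HCT116 colon tumor cells with beta catenin knocked out; cells exposed to compound for 60 hours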
# BJ [5] = experiment: cytotoxicity toward BJ-TERT-LT-ST fibroblasts, dose response, cell-based, RAS-independent, luminescence (AID 1935); type: functional; settings: Homo sapiens;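 also: BJ fibroblasts immortalized with TERT plus LT and ST oncogenes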
# [6] = biological target: T1, Corticotropin-releasing factor receptor 2/Corticotropin-releasing factor-binding protein (Homo sapiens, UniProt P24387+Q13324); experiment: activators of CRF receptor 2 with binding protein – uHTS hits, confirmation (AID 602473); type: functional; settings: read-out: EC50_Mean
# T1 sequence (Q13324 whole entry): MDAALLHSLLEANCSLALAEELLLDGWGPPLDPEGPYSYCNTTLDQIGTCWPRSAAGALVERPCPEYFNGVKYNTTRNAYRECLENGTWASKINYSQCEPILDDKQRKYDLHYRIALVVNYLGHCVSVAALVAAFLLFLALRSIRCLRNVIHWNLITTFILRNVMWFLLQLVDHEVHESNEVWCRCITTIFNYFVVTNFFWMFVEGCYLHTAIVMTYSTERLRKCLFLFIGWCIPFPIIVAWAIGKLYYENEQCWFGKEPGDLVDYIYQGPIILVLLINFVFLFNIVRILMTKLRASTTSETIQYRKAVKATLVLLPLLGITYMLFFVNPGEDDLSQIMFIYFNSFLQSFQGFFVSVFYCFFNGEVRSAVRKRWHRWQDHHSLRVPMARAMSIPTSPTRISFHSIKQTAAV
# T1 sequence (P24387 whole entry): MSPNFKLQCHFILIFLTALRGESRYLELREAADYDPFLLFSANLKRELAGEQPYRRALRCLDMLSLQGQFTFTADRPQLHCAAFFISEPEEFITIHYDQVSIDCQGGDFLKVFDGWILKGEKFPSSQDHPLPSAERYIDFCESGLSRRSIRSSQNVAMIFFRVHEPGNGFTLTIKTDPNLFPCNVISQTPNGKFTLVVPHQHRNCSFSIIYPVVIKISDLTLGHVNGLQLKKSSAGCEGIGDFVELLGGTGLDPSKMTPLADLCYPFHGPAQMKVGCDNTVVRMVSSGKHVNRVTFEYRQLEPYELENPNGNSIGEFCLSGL
# [7] = growth suppression of PTEN-null colon cells, dose response, cell-based, HCT116 PTEN knockout (AID 1047); type: functional;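 also: HCT116 colon tumor cells with PTEN knocked out; cells exposed to compound for 60 hours before readout; potency for loss of cell viability measured by luminescence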
# [8] = biological target: T2, Histone-lysine N-methyltransferase NSD2 (Homo sapiens, UniProt O96028); type: biochemical
# T2 sequence (O96028 whole entry): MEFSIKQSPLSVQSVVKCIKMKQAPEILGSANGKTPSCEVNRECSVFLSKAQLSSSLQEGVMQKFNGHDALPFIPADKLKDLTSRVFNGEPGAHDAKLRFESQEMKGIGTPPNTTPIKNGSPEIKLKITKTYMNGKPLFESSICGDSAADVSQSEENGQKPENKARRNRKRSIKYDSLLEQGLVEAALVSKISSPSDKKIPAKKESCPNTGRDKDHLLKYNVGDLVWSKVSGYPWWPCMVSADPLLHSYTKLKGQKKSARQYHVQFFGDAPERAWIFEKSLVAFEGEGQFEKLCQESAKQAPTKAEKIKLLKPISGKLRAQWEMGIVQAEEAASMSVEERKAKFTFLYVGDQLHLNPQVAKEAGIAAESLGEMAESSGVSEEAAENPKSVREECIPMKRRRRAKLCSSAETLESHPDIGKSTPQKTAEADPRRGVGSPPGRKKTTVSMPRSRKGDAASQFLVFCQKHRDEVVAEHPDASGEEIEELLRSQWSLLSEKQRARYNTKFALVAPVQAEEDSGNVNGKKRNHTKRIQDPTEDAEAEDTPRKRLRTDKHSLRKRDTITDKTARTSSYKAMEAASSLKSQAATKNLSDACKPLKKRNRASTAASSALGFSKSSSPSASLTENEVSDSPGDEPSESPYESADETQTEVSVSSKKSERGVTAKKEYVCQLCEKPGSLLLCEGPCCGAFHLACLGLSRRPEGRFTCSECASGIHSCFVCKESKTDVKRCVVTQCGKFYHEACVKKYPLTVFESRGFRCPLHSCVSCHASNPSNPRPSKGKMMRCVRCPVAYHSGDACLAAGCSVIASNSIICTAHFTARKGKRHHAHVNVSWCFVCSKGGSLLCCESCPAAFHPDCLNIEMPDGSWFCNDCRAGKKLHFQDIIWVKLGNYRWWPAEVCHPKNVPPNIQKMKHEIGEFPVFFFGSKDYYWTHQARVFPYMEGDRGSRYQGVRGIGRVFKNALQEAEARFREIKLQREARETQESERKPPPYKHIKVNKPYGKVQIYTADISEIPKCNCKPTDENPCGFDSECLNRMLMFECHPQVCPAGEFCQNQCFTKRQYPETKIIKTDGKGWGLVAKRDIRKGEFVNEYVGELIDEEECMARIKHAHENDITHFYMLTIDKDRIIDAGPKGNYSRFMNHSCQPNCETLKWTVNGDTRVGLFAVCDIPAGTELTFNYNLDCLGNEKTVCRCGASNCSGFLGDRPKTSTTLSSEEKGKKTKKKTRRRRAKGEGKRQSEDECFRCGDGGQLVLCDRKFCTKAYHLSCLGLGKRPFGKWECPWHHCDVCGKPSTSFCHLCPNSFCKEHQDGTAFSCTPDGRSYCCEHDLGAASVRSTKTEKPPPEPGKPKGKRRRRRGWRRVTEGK
# BJ [9] = experiment: cytotoxicity toward BJ-TERT fibroblasts, dose response, cell-based, RAS-independent, luminescence (AID 1933); type: functional; settings: Homo sapiens
# Streptococcus = experiment: Group A Streptococcus viability loss, dose response, counter-screen for streptokinase expression inhibitor project, luminescence, BacTiterGlo (AID 1915); type: functional, organism-based;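 also: potency for reduction of bacterial viability or growth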
# BJ [10] = experiment: cytotoxicity toward Ras-transformed BJeLR fibroblasts, dose response, cell-based, alamar blue fluorescence, cherrypicked samples (AID 2631); type: functional; settings: Homo sapiens;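 also: confirmatory dose-response assay in RAS-dependent BJ fibroblasts engineered with TERT, LT and ST, with cytotoxicity read by fluorescence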
# [11] = biological target: Sphingosine 1-phosphate receptor 2 (Homo sapiens, UniProt O95136); experiment: Dose Response Cell Based Assay for Antagonists of the S1P2 Receptor. [Related pubchem assays: 856, 736 ]; type: functional
# [12] = Luminescence Cell-Based Dose Retest to Confirm Inhibitors of Cancer Stem Cells. [Related pubchem assays (depositor defined):AID2717, AID2721]; type: functional; settings: Homo sapiens
# fMet-Leu-Phe receptor = biological target: T3, fMet-Leu-Phe receptor (Homo sapiens, UniProt P21462); experiment: FPR ligands, dose response (AID 519); type: functional
# T3 sequence (P21462 whole entry): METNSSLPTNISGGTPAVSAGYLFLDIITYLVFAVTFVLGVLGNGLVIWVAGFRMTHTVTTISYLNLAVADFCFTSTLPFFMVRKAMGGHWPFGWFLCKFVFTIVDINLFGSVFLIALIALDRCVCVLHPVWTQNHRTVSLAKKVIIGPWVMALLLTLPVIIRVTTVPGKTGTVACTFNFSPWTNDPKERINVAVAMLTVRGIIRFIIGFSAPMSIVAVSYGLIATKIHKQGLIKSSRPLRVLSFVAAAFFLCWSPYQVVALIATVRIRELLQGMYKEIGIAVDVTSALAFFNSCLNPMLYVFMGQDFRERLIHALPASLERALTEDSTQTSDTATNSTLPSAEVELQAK
# [13] = biological target: T4, Mannose-6-phosphate isomerase (Homo sapiens, UniProt P34949); experiment: human PMI inhibitors, high substrate, primary screen, biochemical, fluorescence intensity, high mannose 6-phosphate (AID 1220)
# T4 sequence (P34949 whole entry): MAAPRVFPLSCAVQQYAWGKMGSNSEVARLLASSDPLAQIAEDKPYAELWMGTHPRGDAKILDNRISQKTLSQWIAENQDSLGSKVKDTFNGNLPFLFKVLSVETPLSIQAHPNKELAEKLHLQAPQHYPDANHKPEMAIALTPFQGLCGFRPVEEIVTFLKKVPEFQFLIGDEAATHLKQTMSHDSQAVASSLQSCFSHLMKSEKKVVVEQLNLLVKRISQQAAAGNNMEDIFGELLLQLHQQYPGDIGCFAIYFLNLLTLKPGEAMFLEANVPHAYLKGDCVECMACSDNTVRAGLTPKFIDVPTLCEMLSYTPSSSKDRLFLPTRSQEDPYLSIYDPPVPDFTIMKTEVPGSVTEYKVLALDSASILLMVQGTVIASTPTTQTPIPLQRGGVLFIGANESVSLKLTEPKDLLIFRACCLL
# Mucolipin-3 = biological target: T5, Mucolipin-3 (Homo sapiens, UniProt Q8TDD5); experiment: Dose response cell-based high-throughput screening assay for agonists of the transient receptor potential channel ML3 (TRPML3). [Related pubchem assays: 1526, 1424, 1448 ]; type: functional
# T5 sequence (Q8TDD5 whole entry): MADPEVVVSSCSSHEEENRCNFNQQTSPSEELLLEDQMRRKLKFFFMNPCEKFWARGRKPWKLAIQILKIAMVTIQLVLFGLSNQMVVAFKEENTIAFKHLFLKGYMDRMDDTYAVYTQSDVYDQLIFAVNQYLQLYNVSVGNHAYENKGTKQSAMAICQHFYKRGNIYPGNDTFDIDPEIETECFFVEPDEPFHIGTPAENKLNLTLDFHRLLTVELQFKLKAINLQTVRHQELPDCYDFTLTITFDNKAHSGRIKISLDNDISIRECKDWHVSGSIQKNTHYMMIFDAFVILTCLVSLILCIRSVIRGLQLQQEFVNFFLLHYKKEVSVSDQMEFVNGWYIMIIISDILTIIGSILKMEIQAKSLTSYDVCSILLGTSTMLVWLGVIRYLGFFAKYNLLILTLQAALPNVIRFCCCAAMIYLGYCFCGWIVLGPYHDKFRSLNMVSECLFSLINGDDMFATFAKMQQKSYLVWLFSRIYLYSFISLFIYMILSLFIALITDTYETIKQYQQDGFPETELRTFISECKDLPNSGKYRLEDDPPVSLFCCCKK
# Ion channel NompC = Ion channel NompC (Danio rerio, UniProt Q7T1G6); experiment: Fluorescence counterscreen assay for TRPML3 agonists: dose response cell-based high-throughput screening assay to identify agonists of the transient receptor potential channel N1 (TRPN1). [Related pubchem assays: 1526, 1424, 1448 ]; type: functional
# INS1 = experiment: beta cell apoptosis inhibitors, cytokine rescue, dose response, luminescence, retest (AID 449756); type: functional, cell-based; settings: Rattus norvegicus;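 also: cell death triggered by IL-1 beta plus TNF-alpha plus IFN-gamma mixture; protective hits raise ATP signal compared with cytokine alone wells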
# [14] = microbe, parasite or virus in culture; type: functional; settings: Mycobacterium tuberculosis
# [15] = NIH-3T3 fibroblast cytotoxicity, dose response, cytotoxicity control, cell-based, fluorescence, Alamar Blue, secondary assay (AID 2327); type: functional;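 also: NIH-3T3 mouse fibroblasts cultured with fluconazole at 8 µg/mL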
# [16] = C. albicans growth with fluconazole, confirmation, fluorescence, retest (AID 2467); type: functional, cell-based
# cells = type: functional
# [17] = THP-1 cell cytotoxicity, dose response, cytotoxicity control for non-replicating M. tuberculosis project (AID 489025); type: functional
# [18] = HepG2 cell cytotoxicity, dose response, cytotoxicity control for non-replicating M. tuberculosis project (AID 489018); type: functional; settings: Mycobacterium tuberculosis
# [19] = Vero E6 cell cytotoxicity, dose response, cytotoxicity control for non-replicating M. tuberculosis project, secondary assay (AID 492998); type: functional, VeroE6; settings: Vero C1008
# Chain of Ion channel NompC (Q7T1G6 whole entry): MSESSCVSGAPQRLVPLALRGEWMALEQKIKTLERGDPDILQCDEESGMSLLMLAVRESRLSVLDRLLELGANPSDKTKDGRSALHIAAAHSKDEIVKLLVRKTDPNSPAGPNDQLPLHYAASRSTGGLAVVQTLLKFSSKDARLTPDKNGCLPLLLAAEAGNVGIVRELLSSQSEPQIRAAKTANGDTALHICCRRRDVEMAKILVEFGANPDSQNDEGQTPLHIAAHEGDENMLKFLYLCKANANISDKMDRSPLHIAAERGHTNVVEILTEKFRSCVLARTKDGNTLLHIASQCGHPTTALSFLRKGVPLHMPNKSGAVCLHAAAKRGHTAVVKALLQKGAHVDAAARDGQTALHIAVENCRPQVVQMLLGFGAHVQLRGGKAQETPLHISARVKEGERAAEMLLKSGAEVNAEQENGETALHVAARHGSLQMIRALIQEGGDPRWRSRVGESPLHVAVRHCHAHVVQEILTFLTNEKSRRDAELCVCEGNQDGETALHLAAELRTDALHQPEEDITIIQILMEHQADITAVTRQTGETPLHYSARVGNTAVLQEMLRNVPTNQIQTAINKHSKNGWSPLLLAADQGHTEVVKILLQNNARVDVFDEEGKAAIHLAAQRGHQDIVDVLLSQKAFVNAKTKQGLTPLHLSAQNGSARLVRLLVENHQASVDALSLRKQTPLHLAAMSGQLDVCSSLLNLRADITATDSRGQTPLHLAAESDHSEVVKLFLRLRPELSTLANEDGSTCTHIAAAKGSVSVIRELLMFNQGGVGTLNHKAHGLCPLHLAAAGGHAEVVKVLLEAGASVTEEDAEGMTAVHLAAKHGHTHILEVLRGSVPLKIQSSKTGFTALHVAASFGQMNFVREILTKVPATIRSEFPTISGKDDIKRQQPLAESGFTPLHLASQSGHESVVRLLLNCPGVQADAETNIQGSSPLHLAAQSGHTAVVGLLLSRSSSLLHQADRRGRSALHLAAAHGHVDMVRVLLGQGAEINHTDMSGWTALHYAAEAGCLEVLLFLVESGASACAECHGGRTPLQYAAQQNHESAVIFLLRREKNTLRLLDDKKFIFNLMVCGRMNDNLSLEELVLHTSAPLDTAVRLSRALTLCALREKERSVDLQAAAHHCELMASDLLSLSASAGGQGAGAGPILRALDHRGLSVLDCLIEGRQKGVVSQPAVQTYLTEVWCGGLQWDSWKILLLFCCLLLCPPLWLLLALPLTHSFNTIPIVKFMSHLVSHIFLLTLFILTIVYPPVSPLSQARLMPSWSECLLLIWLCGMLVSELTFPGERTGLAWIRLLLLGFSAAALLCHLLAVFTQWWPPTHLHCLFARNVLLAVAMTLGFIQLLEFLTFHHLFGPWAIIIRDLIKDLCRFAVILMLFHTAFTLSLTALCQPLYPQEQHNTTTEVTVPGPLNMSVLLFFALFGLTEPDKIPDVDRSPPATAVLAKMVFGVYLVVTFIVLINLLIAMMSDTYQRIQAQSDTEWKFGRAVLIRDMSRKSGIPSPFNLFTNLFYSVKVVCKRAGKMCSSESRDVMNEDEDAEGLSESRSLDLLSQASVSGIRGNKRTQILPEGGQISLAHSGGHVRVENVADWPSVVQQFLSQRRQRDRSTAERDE
# Chain of Sphingosine 1-phosphate receptor 2 (O95136 whole entry): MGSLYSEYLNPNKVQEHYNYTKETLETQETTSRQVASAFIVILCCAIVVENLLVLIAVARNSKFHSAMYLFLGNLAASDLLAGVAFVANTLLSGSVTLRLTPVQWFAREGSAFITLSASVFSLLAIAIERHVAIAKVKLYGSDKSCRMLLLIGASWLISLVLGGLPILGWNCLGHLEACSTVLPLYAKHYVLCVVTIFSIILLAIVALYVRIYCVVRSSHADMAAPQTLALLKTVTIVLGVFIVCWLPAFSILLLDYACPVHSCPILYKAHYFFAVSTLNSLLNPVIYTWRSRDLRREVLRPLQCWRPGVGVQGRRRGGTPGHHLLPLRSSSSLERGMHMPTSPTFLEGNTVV
structure (smiles),measurement,setting,value
CCN1/C(=C\C=C\C2=[N+](CC)c3ccccc3C2(C)C)C(C)(C)c2ccccc21.[O-][Cl+3]([O-])([O-])[O-],EC50,[1],5.96 µM (active)
same,EC50,[2],0.903 µM (active)
same,EC50,BJ [3],0.664 µM (active)
same,EC50,[4],< 0.059 µM (active)
same,EC50,BJ [5],2.01 µM (active)
same,EC50,[6],3.74 µM (active)
same,EC50,[7],< 0.059 µM (active)
same,AC50,[8],> 20 µM (inactive)
same,EC50,BJ [9],0.395 µM (inconclusive)
same,EC50,Streptococcus,19.5 µM (active)
same,EC50,BJ [10],0.273 µM (active)
same,IC50,[11],0.587 µM (active)
O=C(NCCN1CCOCC1)NC1(C(F)(F)F)Oc2ccc(Cl)cc2O1 (centres undefined),AC50,[12],7.37 µM (active)
same,Ki,fMet-Leu-Phe receptor,> 66.7 µM (inactive)
same,IC50,[13],> 50 µM (not active)
O=C1C2C3C=CC(C3)C2C(=O)N1c1ccc(N2CCN(c3ccccn3)CC2)c([N+](=O)[O-])c1 (centres undefined),EC50,Mucolipin-3,> 29.9 µM (not active)
same,AC50,[12],0.619 µM (active)
same,EC50,Ion channel NompC,> 29.9 µM (not active)
COC(=O)c1cnc(N2CCCN(S(=O)(=O)c3ccccc3)CC2)nc1C(F)(F)F,EC50,Mucolipin-3,> 29.9 µM (not active)
same,EC50,Ion channel NompC,> 29.9 µM (not active)
CCOC(=O)N1CCN(Cc2cc(Cl)c3cccnc3c2O)CC1,AC50,INS1,3.13 µM (active)
same,CC50,[14],4.95 µM (active)
same,EC50,[15],> 150 µM (inactive)
same,EC50,[16],1.28 µM (active)
same,IC50,cells,10.9 µM (active)
same,CC50,[17],4.35 µM (active)
same,CC50,[18],11 µM (active)
same,IC50,[13],11.8 µM (active)
same,CC50,[19],2.64 µM (active)
